According to ChEMBL document CHEMBL1201862, “PubChem BioAssay data set” (2004):
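Each compound was tested at five concentrations against cells in 96-well plates for 48 hours. GI50 = concentration required for 50% inhibition of growth.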 Calls of active or inactive are those of the source. Cut-off read from the data, not from the text of the source: active = GI50 up to about 1.1 µM and inactive = higher.

Experiments:
Experiment in all cases: inhibition of tumour cell growth, NCI panel, 48 h
[1] = system: 786-0
[2] = system: CCRF-CEM
[3] = system: HCC 2998
[4] = system: HL-60
[5] = system: HOP-62
[6] = system: KM12
[7] = system: LOX IMVI
[8] = system: MCF7
[9] = system: MOLT-4
[10] = system: NCI-H226
[11] = system: NCI-H23
[12] = system: OVCAR-8
[13] = system: PC-3
[14] = system: SF-295
[15] = system: SF-539
[16] = system: SK-OV-3
[17] = system: SN12C
[18] = system: SNB-75
[19] = system: SW-620
[20] = system: UACC-257

SMILES	GI50 [1]	GI50 [2]	GI50 [3]	GI50 [4]	GI50 [5]	GI50 [6]	GI50 [7]	GI50 [8]	GI50 [9]	GI50 [10]	GI50 [11]	GI50 [12]	GI50 [13]	GI50 [14]	GI50 [15]	GI50 [16]	GI50 [17]	GI50 [18]	GI50 [19]	GI50 [20]
COC(=O)c1c(C)ccc2c(O)c3c(cc12)C(=O)c1c2c(cc(O)c1C3=O)C1(C)OC(C)(O2)C(O)C(N(C)C)C1O (stereo unspecified)	0.767 µM (active)	0.283 µM (active)	0.532 µM (active)	3.98 µM (inactive)	1.74 µM (inactive)	1.42 µM (inactive)	1.24 µM (inactive)	1.28 µM (inactive)	0.543 µM (active)	2.26 µM (inactive)	1.56 µM (inactive)	0.83 µM (active)	1.66 µM (inactive)	1.81 µM (inactive)	2.21 µM (inactive)	3.33 µM (inactive)	2.41 µM (inactive)	1.61 µM (inactive)	0.869 µM (active)	1.65 µM (inactive)
C=C=C(CC1CCCCC1=O)S(=O)(=O)c1ccccc1 (stereo unspecified)	4.2 µM (inactive)	2.16 µM (inactive)	> 8.71 µM (inactive)	1.52 µM (inactive)	> 10 µM (inactive)	–	> 4.78 µM (inactive)	3.23 µM (inactive)	0.0489 µM (active)	> 10 µM (inactive)	5.13 µM (inactive)	> 9.46 µM (inactive)	> 10 µM (inactive)	> 10 µM (inactive)	> 10 µM (inactive)	> 10 µM (inactive)	7.41 µM (inactive)	> 6.04 µM (inactive)	2.86 µM (inactive)	> 10 µM (inactive)
CCCCN1C(=O)C[C@H]2[C@@H]3CCc4cc(OCCN5CCCC5)ccc4[C@H]3CC[C@]2(C)C1=O	2.88 µM (inactive)	4.06 µM (inactive)	10.3 µM (inactive)	7.1 µM (inactive)	4.07 µM (inactive)	7.94 µM (inactive)	3.19 µM (inactive)	5.65 µM (inactive)	2.65 µM (inactive)	6.53 µM (inactive)	11.4 µM (inactive)	15.1 µM (inactive)	7.48 µM (inactive)	3.9 µM (inactive)	9.71 µM (inactive)	13.9 µM (inactive)	14.2 µM (inactive)	3.4 µM (inactive)	11.5 µM (inactive)	4.38 µM (inactive)
CC(NC(=O)C(N)CC(=O)O)NC(=O)N(C)C(C)(C)C (stereo unspecified)	> 100 µM (inactive)	> 100 µM (inactive)	> 100 µM (inactive)	> 100 µM (inactive)	> 100 µM (inactive)	> 100 µM (inactive)	> 100 µM (inactive)	> 100 µM (inactive)	> 100 µM (inactive)	> 100 µM (inactive)	> 100 µM (inactive)	> 100 µM (inactive)	> 100 µM (inactive)	> 100 µM (inactive)	> 100 µM (inactive)	> 100 µM (inactive)	> 100 µM (inactive)	> 100 µM (inactive)	> 100 µM (inactive)	> 100 µM (inactive)
Cn1ccnc1Sc1ccc(/C=N\NC(=O)c2cccc(F)c2)cc1[N+](=O)[O-]	31.9 µM (inactive)	> 100 µM (inactive)	> 100 µM (inactive)	> 100 µM (inactive)	37.3 µM (inactive)	> 100 µM (inactive)	> 100 µM (inactive)	27.8 µM (inactive)	> 100 µM (inactive)	> 100 µM (inactive)	47.2 µM (inactive)	21.7 µM (inactive)	24 µM (inactive)	35.9 µM (inactive)	25.9 µM (inactive)	33.5 µM (inactive)	50.1 µM (inactive)	27 µM (inactive)	> 100 µM (inactive)	> 100 µM (inactive)
CC1(C)CC(=O)C2=C(C1)N(c1ccccc1)C1(O)C=CC(O)=C3C(=O)c4ccccc4C(=O)C321 (stereo unspecified)	33.1 µM (inactive)	4.06 µM (inactive)	30.2 µM (inactive)	37.2 µM (inactive)	34.4 µM (inactive)	23 µM (inactive)	21 µM (inactive)	27.7 µM (inactive)	12.5 µM (inactive)	18.7 µM (inactive)	24.6 µM (inactive)	37.8 µM (inactive)	26.2 µM (inactive)	30 µM (inactive)	27.4 µM (inactive)	88.9 µM (inactive)	28.7 µM (inactive)	22.5 µM (inactive)	–	33.8 µM (inactive)
CCO/C=N\C1=C(C#N)SC2=N/C(=C\c3ccco3)C(=O)N21	> 100 µM (inactive)	> 100 µM (inactive)	> 100 µM (inactive)	> 100 µM (inactive)	> 100 µM (inactive)	> 100 µM (inactive)	> 100 µM (inactive)	> 100 µM (inactive)	> 100 µM (inactive)	> 100 µM (inactive)	> 100 µM (inactive)	> 100 µM (inactive)	> 100 µM (inactive)	> 100 µM (inactive)	> 100 µM (inactive)	> 100 µM (inactive)	> 100 µM (inactive)	> 100 µM (inactive)	> 100 µM (inactive)	> 100 µM (inactive)
CNC1C(O)C(OC2C(N)CC(N)C(OC3OC(CN)=CCC3N)C2O)OCC1(C)O (stereo unspecified)	> 100 µM (inactive)	> 100 µM (inactive)	> 100 µM (inactive)	> 100 µM (inactive)	> 100 µM (inactive)	> 100 µM (inactive)	> 100 µM (inactive)	> 100 µM (inactive)	> 100 µM (inactive)	> 100 µM (inactive)	> 100 µM (inactive)	> 100 µM (inactive)	> 100 µM (inactive)	> 100 µM (inactive)	> 100 µM (inactive)	> 100 µM (inactive)	> 100 µM (inactive)	> 100 µM (inactive)	> 100 µM (inactive)	> 100 µM (inactive)
CCOC(CNc1nn2c(C)nnc2s1)OCC	> 100 µM (inactive)	> 100 µM (inactive)	> 100 µM (inactive)	> 100 µM (inactive)	> 100 µM (inactive)	> 100 µM (inactive)	> 100 µM (inactive)	> 100 µM (inactive)	> 100 µM (inactive)	> 100 µM (inactive)	> 100 µM (inactive)	> 100 µM (inactive)	> 100 µM (inactive)	> 100 µM (inactive)	> 100 µM (inactive)	> 100 µM (inactive)	> 100 µM (inactive)	> 100 µM (inactive)	> 100 µM (inactive)	> 100 µM (inactive)
CCNC(=O)OCC1C2=C(C(=O)C(C)=C(N)C2=O)N2CC3C(N3C)C12OC (stereo unspecified)	10.1 µM (inactive)	4.21 µM (inactive)	14.6 µM (inactive)	3.94 µM (inactive)	6.44 µM (inactive)	–	13.7 µM (inactive)	4.95 µM (inactive)	3.28 µM (inactive)	> 87.7 µM (inactive)	1.4 µM (inactive)	21.7 µM (inactive)	24.5 µM (inactive)	7.76 µM (inactive)	16.6 µM (inactive)	27.4 µM (inactive)	13.5 µM (inactive)	21.7 µM (inactive)	9.93 µM (inactive)	62.4 µM (inactive)
OCc1ccc2c(c1)CC1(C2)Cc2cc3c(cc2C1O)CCC3 (stereo unspecified)	5.64 µM (inactive)	4.01 µM (inactive)	6.55 µM (inactive)	2.2 µM (inactive)	4.49 µM (inactive)	2.87 µM (inactive)	5.18 µM (inactive)	3.66 µM (inactive)	4.09 µM (inactive)	7.31 µM (inactive)	5.35 µM (inactive)	5.74 µM (inactive)	2.34 µM (inactive)	2.2 µM (inactive)	3.5 µM (inactive)	8.75 µM (inactive)	3.22 µM (inactive)	3.85 µM (inactive)	4.55 µM (inactive)	2.3 µM (inactive)
COc1cccc(-c2cc(O)c3c(C)cc(C)nc3n2)c1	0.435 µM (active)	0.431 µM (active)	0.682 µM (active)	0.182 µM (active)	1.09 µM (active)	0.264 µM (active)	0.703 µM (active)	0.442 µM (active)	0.531 µM (active)	0.394 µM (active)	0.746 µM (active)	0.944 µM (active)	0.304 µM (active)	0.493 µM (active)	0.455 µM (active)	0.468 µM (active)	0.845 µM (active)	0.167 µM (active)	0.333 µM (active)	–
COC(=O)/C(C#N)=C(/NCc1ccccc1)Nc1ccccc1	92.5 µM (inactive)	–	> 100 µM (inactive)	27.8 µM (inactive)	> 100 µM (inactive)	–	61.2 µM (inactive)	> 100 µM (inactive)	30.1 µM (inactive)	> 100 µM (inactive)	> 100 µM (inactive)	> 100 µM (inactive)	46 µM (inactive)	46.1 µM (inactive)	> 100 µM (inactive)	> 100 µM (inactive)	> 100 µM (inactive)	37.3 µM (inactive)	> 100 µM (inactive)	82.8 µM (inactive)
Nc1nc(Nc2ccc(Cl)cc2)sc1C(=O)c1c[nH]c2ccccc12	4.66 µM (inactive)	15 µM (inactive)	11.3 µM (inactive)	15.7 µM (inactive)	21 µM (inactive)	14 µM (inactive)	18.2 µM (inactive)	13.8 µM (inactive)	–	19.3 µM (inactive)	13.4 µM (inactive)	–	14 µM (inactive)	–	15.8 µM (inactive)	21.4 µM (inactive)	15.5 µM (inactive)	5.66 µM (inactive)	15.7 µM (inactive)	7.26 µM (inactive)
